Experimental findings from patent US20070167499A1, “Biaryl linked hydroxamates: preparation and pharmaceutical applications” (A*BIO Pte Ltd., priority 2003, published 2007) are described below.

Assay [1] addresses T1, HDAC8 enzyme (GST-HDAC8) (Homo sapiens, UniProt Q9BY41).
T1 construct: Amplification of human HDAC1 and HDAC8 coding region from this cDNA library; made in house; host or cells: SF9 insect cells (baculovirus, pFASTBAC vector)
T1 sequence (Q9BY41 1-377): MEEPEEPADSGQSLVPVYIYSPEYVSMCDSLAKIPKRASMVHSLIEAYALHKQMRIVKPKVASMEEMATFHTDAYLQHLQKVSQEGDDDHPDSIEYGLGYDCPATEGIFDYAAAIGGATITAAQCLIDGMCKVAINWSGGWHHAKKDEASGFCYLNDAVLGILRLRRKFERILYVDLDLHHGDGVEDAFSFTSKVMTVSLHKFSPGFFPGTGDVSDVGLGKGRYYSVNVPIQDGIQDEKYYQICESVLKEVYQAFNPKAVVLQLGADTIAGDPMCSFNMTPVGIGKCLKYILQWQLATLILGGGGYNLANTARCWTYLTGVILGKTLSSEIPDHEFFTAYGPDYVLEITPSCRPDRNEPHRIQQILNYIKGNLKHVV
Description: In vitro HDAC assay for determination of IC50 values (BIOMOL fluorescent-based HDAC activity assay), HDAC8. The class given is biochemical. On the procedure:
Recombinant GST-HDAC1 and GST-HDAC-8 Protein expression and purification
Human cDNA library was prepared using cultured SW620 cells. Amplification of human HDAC1 and HDAC8 coding region from this cDNA library was cloned separately into the baculovirus expression pDEST20 vector and pFASTBAC vector respectively (GATEWAY Cloning Technology, Invitrogen Pte Ltd). […] Recombinant baculovirus was prepared using the Bac-To-Bac method following the manufacturer's instruction (Invitrogen Pte Ltd).
Expression of GST-HDAC1 or HTGST-HDAC8 was done by infecting SF9 cells (Invitrogen Pte Ltd) with pDEST20-HDAC1 or pFASTBAC-GST-HDAC8 baculovirus at MOI=1 for 48 h. Soluble cell lysate was incubated with pre-equilibrated Glutathione Sepharose 4B beads (Amersham) at 4° C. for 2 h. The beads were washed with PBS buffer for 3 times. The GST-HDAC1 protein or GST-HDAC8 protein was eluted by elution buffer containing 50 mM Tris, pH8.0, 150 mM NaCl, 1% Triton X-100 and 10 mM or 20 mM reduced Glutathione. The purified GST-HDAC1 protein or purified GST-HDAC8 protein was dialyzed with HDAC storage buffer containing 10 mM Tris, pH7.5, 100 mM NaCl and 3 mM MgCl2. 20% Glycerol was added to purified GST-HDAC1 protein or purified GST-HDAC8 before storage at −80° C.
In vitro HDAC assay for determination of IC50 values
The assay has been carried out in 96 well format and the BIOMOL fluorescent-based HDAC activity assay has been applied. […] Flur de lys Developer was added and the reaction was incubated for 10 min. Briefly, deacetylation of the substrate sensitizes it to the developer, which then generates a fluorophore The fluorophore is excited with 360 nm light and the emitted light (460 nm) is detected on a fluorometric plate reader (Tecan Ultra Microplate detection system, Tecan Group Ltd.).
The analytical software, Prism 3.0® (GraphPad Software Inc) has been used to generate IC50 from a series of data.

Assay [2] relates to NCI H552. Description: Cell-based proliferation assay for determination of GI50 values, lung cancer cell line. The settings on record: Homo sapiens; 96 h treatment, cyquant cell proliferation assay; read-out: Cellular activities GI50, NCI H552. On the procedure: Cell-based Proliferation assay for determination of GI50 values
Three different cancer cell lines were obtained from ATCC: Human colon cancer cell line (Colo205), human breast cancer cell lines (MDA-MB435), and human lung cancer cell line (NCl-H522). Colo205 cells and NCl-H522 were cultivated in RPMI 1640 containing 2 mM
L-Glutamine, 5% FBS, 1.0 mM Na Pyruvate. MDA-MB435 cells were cultivated in DMEM containing 2 mM L-Glutamine, 5% FBS. Colo205 cells were seeded in 96-wells plate at 2000 and 5000 cells per well respectively. MDA-MB435 and NCl-H522 cells were seeded in 96-wells plate at 6000 cells per well. The plates were incubated at 37° C., 5% CO2, for 24 h. Cells were treated with compounds at various concentrations for 96 h. Cell growth was then monitored using cyquant cell proliferation assay (Invitrogen Pte Ltd). Dose response curves were plotted to determine GI50 values for the compounds using XL-fit (ID Business Solution, Emeryville, Calif.).

For assay [3], the system named is acetylated H4 in Colo205 cells. In words: Histone H4 acetylation assay (western-blot). Also noted: key: “Active” means accumulation of acetylated histone was observed when compared with control (without compound). It counts as cell-based, human. The conditions noted are these: Colo205 cells, 0.1, 1, 5 and 10 μM, after 24 h. On the procedure:
Histone H3, H4 and H2A acetylation assay
A hallmark of histone deacetylase (HDAC) inhibition is the increase in the acetylation level of histones. Histone acetylation, including H3, H4 and H2A can be detected by immuno-blotting (western-blot). Colo205 cells, approximately 1.5×10^6 cells/10 cm dish, were seeded in the previously described medium, cultivated for 24 h and subsequently treated with HDAC inhibitory agents at 0.1, 1, 5 and 10 μM final concentration. After 24 h, cells were harvested and lysed according to the instruction from Sigma Mammalian Cell Lysis Kit. The protein concentration was quantified using BCA method (Sigma Pte Ltd). The protein lysate was separated using 4-12% bis-tris SDS-PAGE gel (Invitrogen Pte Ltd) and was transferred onto PVDF membrane (BioRad Pte Ltd). The membrane was probed separately using primary antibody specific for acetylated H3, acetylated H4 or acetylated H2A (Upstate Pte Ltd). The detection antibody, goat anti rabbit antibody conjugated with horse radish peroxidase (HRP) was used according to the manufacturing instruction (Pierce Pte Ltd). After removing the detection antibody from the membrane, an enhanced chemiluminescent substrate for detection of HRP (Pierce Pte Ltd) was added onto the membrane. After removing the substrate, the membrane was exposed to an X-ray film (Kodak) for 1 sec-20 mins. The X-ray film was developed using the X-ray film processor. The density of each band observed on the developed film could be analysed using UVP Bioimaging software (UVP, Inc, Upland, Calif.). The values were then normalized against the density of actin in the corresponding samples to obtain the expression of the protein.

The mark [4] stands for this setting: 500 nM HDAC8 enzyme, 200 μM Flur de lys p53 peptide substrate, room temperature 2 h, read-out: HDAC8 Enzyme Activity, IC50.

Where two headings read alike, the source gives them in different places.

As a reminder, the IC50 is the concentration that inhibits the measured activity by half. As usually defined, the GI50 is the concentration that inhibits growth by half. In turn, `O=C(Cc1ccc(-c2csc(NC(=O)Cc3ccccc3)n2)s1)NO` [Example 1, N-Hydroxy-2-[5-(2-phenylacetylamino-thiazol-4-yl)-thiophen-2-yl]-acetamide] registered a half-inhibitory concentration (IC50) in assay [1] of 41 nM. In addition, the 50% growth inhibitory concentration (GI50) in assay [2] was found to be 2360 nM.

With `Nc1nc(-c2ccc(/C=C/C(=O)NO)cc2)cs1` [Example 23, 3-[4-(2-Amino-thiazol-4-yl)-phenyl]-N-hydroxy-acrylamide], in assay [3], the “Histone 4 acetylation” value is given as “Active”. The IC50 in assay [1] (setting [4]) turned out to be 100 nM. In addition, the GI50 in assay [2] was determined as 13300 nM.

With `O=C(NO)c1ccc(-c2ccc(CNCCc3ccccc3)cc2)s1` [Example 26, 5-[4-(Phenethylamino-methyl)-phenyl]-thiophene-2-carboxylic acid hydroxyamide], the “Histone 4 acetylation” value in assay [3] is recorded as “Active”. Further, the half-maximal inhibitory concentration (IC50) in assay [1] (setting [4]) worked out at 16 nM.

`O=C(NO)c1ccc(-c2ccc(CNCCc3ccccn3)cc2)s1` [Example 27]: the “Histone 4 acetylation” value in assay [3] was “Active”. The IC50 in assay [1] (setting [4]) came to 120 nM.
